From patent US11046680B1, “Heteroaryl-substituted triazoles as APJ receptor agonists” (priority 2016, dated 2021)

Target: human APJ receptor (Homo sapiens (Human), UniProt P35414)
Assay: biochemical
Assay type: biochemical
Conditions: [35S]GTPγS binding, CHO membranes expressing human APJ receptor; read-out: Activity hAPJ SPA EC50 IP
How it was run: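 GTPγS binding on membranes from CHO cells stably expressing FLAG-tagged human APJ, with optimized GDP, MgCl2 and NaCl; incubated 90 min at RT before imaging read-out.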

human APJ receptor, sequence (P35414 whole entry): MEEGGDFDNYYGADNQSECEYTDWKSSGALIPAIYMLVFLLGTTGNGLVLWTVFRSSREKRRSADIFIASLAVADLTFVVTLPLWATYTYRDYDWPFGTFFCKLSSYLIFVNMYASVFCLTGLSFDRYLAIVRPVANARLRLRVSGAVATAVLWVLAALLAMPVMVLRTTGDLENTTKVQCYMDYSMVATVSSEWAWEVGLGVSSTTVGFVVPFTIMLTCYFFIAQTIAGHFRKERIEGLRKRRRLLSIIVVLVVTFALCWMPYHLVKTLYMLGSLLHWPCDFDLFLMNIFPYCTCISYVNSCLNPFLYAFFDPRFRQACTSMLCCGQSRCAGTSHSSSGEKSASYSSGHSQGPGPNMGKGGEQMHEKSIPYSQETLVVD

Compound: COc1cnc([C@@H](OC)[C@H](C)S(=O)(=O)Nc2nnc(-c3ccn(C)n3)n2-c2c(OC)cccc2OC)cn1 (single isomer, unassigned) [Example 308.0, (1R,2S)-N-(4-(2,6-dimethoxyphenyl)-5-(1-methyl-1H-pyrazol-3-yl)-4H-1,2,4-triazol-3-yl)-1-methoxy-1-(5-methoxy-2-pyrazinyl)-2-propanesulfonamide or (1S,2R)-N-(4-(2,6-dimethoxyphenyl)-5-(1-methyl-1H-pyrazol-3-yl)-4H-1,2,4-triazol-3-yl)-1-methoxy-1-(5-methoxy-2-pyrazinyl)-2-propanesulfonamide]
- EC50: 0.58 nM

Compound: COCC1(n2c(NS(=O)(=O)[C@@H](C)[C@H](OC)c3ncc(Cl)cn3)nnc2-c2n[nH]c3c2CCCC3)CC1 [Example 491.0, (1R,2S)-1-(5-chloropyrimidin-2-yl)-1-methoxy-N-(4-(1-(methoxymethyl)cyclopropyl)-5-(4,5,6,7-tetrahydro-1H-indazol-3-yl)-4H-1,2,4-triazol-3-yl)propane-2-sulfonamide]
- EC50: 15 nM

Compound: COc1cccc(OC)c1-n1c(NS(=O)(=O)[C@@H](C)[C@H](C)c2ncc(F)cn2)nnc1-c1nc(C)cs1 (single isomer, unassigned) [Example 120.0]
- EC50: 0.17 nM

Compound: COc1nccc(-c2nnc(NS(=O)(=O)[C@@H](C)[C@H](C)c3ncc(F)cn3)n2-c2c(OC)cccc2OC)n1 [Example 197.0, (2S,3R)-N-(4-(2,6-dimethoxyphenyl)-5-(2-methoxy-4-pyrimidinyl)-4H-1,2,4-triazol-3-yl)-3-(5-fluoro-2-pyrimidinyl)-2-butanesulfonamide]
- EC50: 2.4 nM

Compound: COc1cnc([C@@H](OC)[C@H](C)S(=O)(=O)Nc2nnc(-c3ccn(C)n3)n2-c2c(OC)cccc2OC)cn1 (single isomer, unassigned) [Example 309.0, (1R,2S)-N-(4-(2,6-dimethoxyphenyl)-5-(1-methyl-1H-pyrazol-3-yl)-4H-1,2,4-triazol-3-yl)-1-methoxy-1-(5-methoxy-2-pyrazinyl)-2-propanesulfonamide or (1S,2R)-N-(4-(2,6-dimethoxyphenyl)-5-(1-methyl-1H-pyrazol-3-yl)-4H-1,2,4-triazol-3-yl)-1-methoxy-1-(5-methoxy-2-pyrazinyl)-2-propanesulfonamide]
- EC50: 34 nM

Compound: COc1cccc(OC)c1-n1c(NS(=O)(=O)[C@@H](C)[C@H](O)c2ncc(C)cn2)nnc1-c1ccn(C(F)F)n1 [Example 218.0, (1R,2S)-N-(5-(1-(difluoromethyl)-1H-pyrazol-3-yl)-4-(2,6-dimethoxyphenyl)-4H-1,2,4-triazol-3-yl)-1-hydroxy-1-(5-methyl-2-pyrimidinyl)-2-propanesulfonamide]
- EC50: 0.87 nM

Compound: COc1ncnc(OC)c1-n1c(NS(=O)(=O)[C@@H](C)[C@H](C)c2ncc(Cl)cn2)nnc1-c1ccn(C)n1 [Example 294.0, (2S,3R)-3-(5-chloro-2-pyrimidinyl)-N-(4-(4,6-dimethoxy-5-pyrimidinyl)-5-(1-methyl-1H-pyrazol-3-yl)-4H-1,2,4-triazol-3-yl)-2-butanesulfonamide]
- EC50: 0.49 nM

Compound: O=S(=O)(CCc1ccccc1)Nc1nnc(-c2ccc(F)s2)n1-c1ccccc1OC(F)F [Example 246.0, N-(4-(2-(difluoromethoxy)phenyl)-5-(5-fluoro-2-thiophenyl)-4H-1,2,4-triazol-3-yl)-2-phenylethanesulfonamide]
- EC50: 39 nM

Compound: COc1ncnc(OC)c1-n1c(NS(=O)(=O)[C@@H](C)[C@H](OC)c2ncc(Cl)cn2)nnc1-c1ccn(C)n1 [Example 450.0, (1R,2S)-1-(5-chloro-2-pyrimidinyl)-N-(4-(4,6-dimethoxy-5-pyrimidinyl)-5-(1-methyl-1H-pyrazol-3-yl)-4H-1,2,4-triazol-3-yl)-1-methoxy-2-propanesulfonamide]
- EC50: 0.81 nM

Compound: CCS(=O)(=O)Nc1nnc(-c2cc([C@@H](O)c3ccc(Cl)cc3S(C)(=O)=O)n(C)n2)n1-c1c(OC)cccc1OC [Example 382.0, N-(5-(5-((R)-(4-Chloro-2-(methylsulfonyl)phenyl)(hydroxy)methyl)-1-methyl-1H-pyrazol-3-yl)-4-(2,6-dimethoxyphenyl)-4H-1,2,4-triazol-3-yl)ethanesulfonamide and N-(5-(5-((S)-(4-chloro-2-(methylsulfonyl)phenyl)(hydroxy)methyl)-1-methyl-H-pyrazol-3-yl)-4-(2,6-dimethoxyphenyl)-4H-1,2,4-triazol-3-yl)ethanesulfonamide]
- EC50: 260 nM

Compound: COc1cccc(OC)c1-n1c(NS(=O)(=O)[C@@H](C)[C@H](OC)c2ncc(C)cn2)nnc1-c1cc(C)[nH]n1 [Example 333.0, (1R,2S)-N-(4-(2,6-dimethoxyphenyl)-5-(5-methyl-1H-pyrazol-3-yl)-4H-1,2,4-triazol-3-yl)-1-methoxy-1-(5-methyl-2-pyrimidinyl)-2-propanesulfonamide]
- EC50: 1.5 nM

Compound: COc1cccc(OC)c1-n1c(NS(=O)(=O)[C@H](C)[C@H](O)c2ncc(C)cn2)nnc1-c1nc(C)cs1 (single isomer, unassigned) [Example 317.0, (1R,2R)-N-(4-(2,6-dimethoxyphenyl)-5-(4-methylthiazol-2-yl)-4H-1,2,4-triazol-3-yl)-1-hydroxy-1-(5-methylpyrimidin-2-yl)propane-2-sulfonamide or (1S,2S)-N-(4-(2,6-dimethoxyphenyl)-5-(4-methylthiazol-2-yl)-4H-1,2,4-triazol-3-yl)-1-hydroxy-1-(5-methylpyrimidin-2-yl)propane-2-sulfonamide]
- EC50: 6.6 nM

Compound: COc1cccc(OC)c1-n1c(NS(=O)(=O)[C@@H](C)[C@H](OC)c2ncc(Cl)cn2)nnc1-c1noc2ccccc12 [Example 83.0, (1R,2S)-N-(5-(benzo[d]isoxazol-3-yl)-4-(2,6-dimethoxyphenyl)-4H-1,2,4-triazol-3-yl)-1-(5-chloropyrimidin-2-yl)-1-methoxypropane-2-sulfonamide]
- EC50: 1.9 nM

Compound: COc1cccc(OC)c1-n1c(NS(=O)(=O)[C@@H](C)[C@H](OC)c2ncc(C)cn2)nnc1-c1n[nH]c2ccc(F)cc12 [Example 437.0]
- EC50: 190 nM

Compound: COc1cccc(OC)c1-n1c(NS(=O)(=O)[C@H](C)[C@H](O)c2ncc(C)cn2)nnc1-c1nc(C)cs1 (single isomer, unassigned) [Example 315.0, (1R,2R)-N-(4-(2,6-dimethoxyphenyl)-5-(4-methylthiazol-2-yl)-4H-1,2,4-triazol-3-yl)-1-hydroxy-1-(5-methylpyrimidin-2-yl)propane-2-sulfonamide or (1S,2S)-N-(4-(2,6-dimethoxyphenyl)-5-(4-methylthiazol-2-yl)-4H-1,2,4-triazol-3-yl)-1-hydroxy-1-(5-methylpyrimidin-2-yl)propane-2-sulfonamide]
- EC50: 0.68 nM

Compound: COc1cccc(OC)c1-n1c(NS(=O)(=O)[C@@H](C)[C@H](OC)c2ncc(C)cn2)nnc1-c1cc2n(n1)CCC2 [Example 205.0, (1R,2S)-N-(5-(5,6-dihydro-4H-pyrrolo[1,2-b]pyrazol-2-yl)-4-(2,6-dimethoxyphenyl)-4H-1,2,4-triazol-3-yl)-1-methoxy-1-(5-methyl-2-pyrimidinyl)-2-propanesulfonamide]
- EC50: 3 nM

Compound: CCc1csc(-c2nnc(NS(=O)(=O)CCc3ncc(F)cn3)n2-c2c(OC)cccc2OC)n1 [Example 97.0, N-(4-(2,6-dimethoxyphenyl)-5-(4-ethylthiazol-2-yl)-4H-1,2,4-triazol-3-yl)-2-(5-fluoropyrimidin-2-yl)ethanesulfonamide]
- EC50: 7 nM

Compound: COc1ncnc(OC)c1-n1c(NS(=O)(=O)[C@@H](C)[C@H](C)c2ncc(C)cn2)nnc1-c1n[nH]c2ccccc12 [Example 427.0, (2S,3R)-N-(4-(4,6-dimethoxypyrimidin-5-yl)-5-(1H-indazol-3-yl)-4H-1,2,4-triazol-3-yl)-3-(5-methylpyrimidin-2-yl)butane-2-sulfonamide]
- EC50: 21 nM

Compound: COc1cccc(OC)c1-n1c(NS(=O)(=O)[C@@H](C)[C@H](C)c2ncc(F)cn2)nnc1-c1cc(C)[nH]n1 [Example 268.0, (2S,3R)-N-(4-(2,6-dimethoxyphenyl)-5-(5-methyl-1H-pyrazol-3-yl)-4H-1,2,4-triazol-3-yl)-3-(5-fluoro-2-pyrimidinyl)-2-butanesulfonamide]
- EC50: 0.68 nM

Compound: COc1cccc(OC)c1-n1c(NS(=O)(=O)C[C@H](O)c2ccc(F)cc2S(C)(=O)=O)nnc1-c1ccn(C)n1 (single isomer, unassigned) [Example 371.0, (R)-N-(4-(2,6-Dimethoxyphenyl)-5-(1-methyl-1H-pyrazol-3-yl)-4H-1,2,4-triazol-3-yl)-2-(4-fluoro-2-(methylsulfonyl)phenyl)-2-hydroxyethanesulfonamide or (S)-N-(4-(2,6-dimethoxyphenyl)-5-(1-methyl-1H-pyrazol-3-yl)-4H-1,2,4-triazol-3-yl)-2-(4-fluoro-2-(methylsulfonyl)phenyl)-2-hydroxyethanesulfonamide]
- EC50: 2.2 nM

Compound: COc1cccc(OC)c1-n1c(NS(=O)(=O)[C@H](C)Cc2ncc(F)cn2)nnc1-c1nc(C(C)C)cs1 (single isomer, unassigned) [Example 158.0, (R)-N-(4-(2,6-dimethoxyphenyl)-5-(4-isopropylthiazol-2-yl)-4H-1,2,4-triazol-3-yl)-1-(5-fluoropyrimidin-2-yl)propane-2-sulfonamide or (S)-N-(4-(2,6-dimethoxyphenyl)-5-(4-isopropylthiazol-2-yl)-4H-1,2,4-triazol-3-yl)-1-(5-fluoropyrimidin-2-yl)propane-2-sulfonamide]
- EC50: 4.1 nM

Compound: CCO[C@H](c1ncc(C)cn1)[C@H](C)S(=O)(=O)Nc1nnc(-c2ccn(C(F)F)n2)n1-c1c(OC)cccc1OC [Example 199.0, (1R,2S)-N-(5-(1-(difluoromethyl)-1H-pyrazol-3-yl)-4-(2,6-dimethoxyphenyl)-4H-1,2,4-triazol-3-yl)-1-ethoxy-1-(5-methyl-2-pyrimidinyl)-2-propanesulfonamide]
- EC50: 0.26 nM

Compound: C[C@H](c1ncc(Cl)cn1)[C@H](C)S(=O)(=O)Nc1nnc(-c2ccn(C)n2)n1-c1c(F)cccc1F [Example 228.0, (2S,3R)-3-(5-chloro-2-pyrimidinyl)-N-(4-(2,6-difluorophenyl)-5-(1-methyl-1H-pyrazol-3-yl)-4H-1,2,4-triazol-3-yl)-2-butanesulfonamide]
- EC50: 4 nM
